PubChem BioAssay (NCI)
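How tested: cells in 96-well plates exposed to compound for 48 hours at five concentrations. TGI is the concentration that stops growth completely.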

What was measured:
Assay in all cases: DTP human tumour cell line panel, 48 h
786-0 renal = tested on: 786-0 renal
KM12 colon = tested on: KM12 colon
DMS 273 small cell lung = tested on: DMS 273 small cell lung
SR leukemia = tested on: SR leukemia
NCI-H460 lung = tested on: NCI-H460 lung
SF-268 CNS = tested on: SF-268 CNS
MOLT-4 leukemia = tested on: MOLT-4 leukemia
CCRF-CEM leukemia = tested on: CCRF-CEM leukemia
SK-MEL-5 melanoma = tested on: SK-MEL-5 melanoma
DMS 114 small cell lung = tested on: DMS 114 small cell lung
XF 498 CNS = tested on: XF 498 CNS
HL-60(TB) leukemia = tested on: HL-60(TB) leukemia
HOP-92 NSCLC = tested on: HOP-92 NSCLC
U251 CNS = tested on: U251 CNS
SNB-75 CNS = tested on: SNB-75 CNS
SK-MEL-28 melanoma = tested on: SK-MEL-28 melanoma
SN12C renal = tested on: SN12C renal
SK-MEL-2 melanoma = tested on: SK-MEL-2 melanoma
SNB-78 CNS = tested on: SNB-78 CNS
SNB-19 CNS = tested on: SNB-19 CNS
CAKI-1 renal = tested on: CAKI-1 renal
OVCAR-8 ovarian = tested on: OVCAR-8 ovarian
COLO 205 colon = tested on: COLO 205 colon
A549 NSCLC = tested on: A549 NSCLC
HOP-18 NSCLC = tested on: HOP-18 NSCLC
HCT-116 colon = tested on: HCT-116 colon
HCC-2998 colon = tested on: HCC-2998 colon
LXFL 529 NSCLC = tested on: LXFL 529 NSCLC
UACC-257 melanoma = tested on: UACC-257 melanoma
NCI-H226 lung = tested on: NCI-H226 lung
RXF 393 renal = tested on: RXF 393 renal
M19-MEL melanoma = tested on: M19-MEL melanoma
UACC-62 melanoma = tested on: UACC-62 melanoma
A498 renal = tested on: A498 renal
MALME-3M melanoma = tested on: MALME-3M melanoma
OVCAR-4 ovarian = tested on: OVCAR-4 ovarian
SF-539 CNS = tested on: SF-539 CNS
KM20L2 colon = tested on: KM20L2 colon
EKVX NSCLC = tested on: EKVX NSCLC
RPMI-8226 leukemia = tested on: RPMI-8226 leukemia
HT29 colon = tested on: HT29 colon
M14 melanoma = tested on: M14 melanoma
SW-620 colon = tested on: SW-620 colon
ACHN renal = tested on: ACHN renal
HCT-15 colon = tested on: HCT-15 colon
IGROV1 ovarian = tested on: IGROV1 ovarian
SF-295 CNS = tested on: SF-295 CNS
HOP-62 NSCLC = tested on: HOP-62 NSCLC
OVCAR-5 ovarian = tested on: OVCAR-5 ovarian
NCI-H522 lung = tested on: NCI-H522 lung
LOX IMVI melanoma = tested on: LOX IMVI melanoma
UO-31 renal = tested on: UO-31 renal
DLD-1 colon = tested on: DLD-1 colon
NCI-H23 lung = tested on: NCI-H23 lung
OVCAR-3 ovarian = tested on: OVCAR-3 ovarian
SK-OV-3 ovarian = tested on: SK-OV-3 ovarian
TK-10 renal = tested on: TK-10 renal
K-562 leukemia = tested on: K-562 leukemia

Measured: TGI

CN1CCC(C(=O)NNc2ccccc2)CC1
32.6 µM: SF-539 CNS
> 86.1 µM: HOP-62 NSCLC
24.4 µM: UO-31 renal
11.3 µM: LOX IMVI melanoma
> 79.7 µM: M19-MEL melanoma
> 86.8 µM: A549 NSCLC
45.6 µM: SK-MEL-5 melanoma
> 46.4 µM: SK-MEL-2 melanoma
5.69 µM: LXFL 529 NSCLC
> 88.1 µM: SK-MEL-28 melanoma
> 31.3 µM: DMS 273 small cell lung
98.5 µM: MALME-3M melanoma
12.6 µM: HCC-2998 colon
> 41.6 µM: OVCAR-5 ovarian
> 87.2 µM: DMS 114 small cell lung
> 33.6 µM: KM20L2 colon
> 77.8 µM: KM12 colon
> 63.3 µM: SW-620 colon
33 µM: SF-295 CNS
> 88.4 µM: M14 melanoma
> 89.2 µM: UACC-257 melanoma | TK-10 renal
> 33.7 µM: UACC-62 melanoma
> 68.9 µM: ACHN renal
> 51.1 µM: HCT-15 colon
10.2 µM: COLO 205 colon
not listed: K-562 leukemia
> 100 µM: all other assays above

O=C1NC2(CCCC2)/C(=N\O)C12CCCC2
not listed: HCC-2998 colon | NCI-H226 lung | KM20L2 colon | RPMI-8226 leukemia
> 100 µM: all other assays above
